Source: EP0699675A2, “3-(4-(1-Substituted-4-piperazinyl)butyl)-4-thiazolidinone and related compounds” (HOECHST-ROUSSEL PHARMACEUTICALS INCORPORATED, priority 1994, dated 1996)
Structures can show the parent of a compound that is named as a salt.

Tested on: CK-1 male mice
Test: climbing mice assay (apomorphine-induced climbing), antipsychotic activity
Assay type: in vivo
Settings: 30 minutes prior to apomorphine 1.5 mg/kg subcutaneously, climbing scores totaled over readings at 10, 20 and 30 minutes, control group set to 100%
Experimental: Antipsychotic activity is determined in the climbing mice assay by methods similar to those described by P. Protais, et al., Psychopharmacol., 50, 1 (1976) and B. Costall, Eur. J. Pharmacol., 50, 39 (1978).
The subject CK-1 male mice (23-27 grams) are group-housed under standard laboratory conditions. The mice are individually placed in wire mesh stick cages (4" x 4" by 10") and are allowed one hour for adaptation and exploration of the new environment. Then apomorphine is injected subcutaneously at 1.5 mg/kg, a dose causing climbing in all subjects for 30 minutes. Compounds to be tested for antipsychotic activity are injected intraperitoneally 30 minutes prior to the apomorphine challenge at a screening dose of 10mg/kg.
For evaluation of climbing, 3 readings are taken at 10,20 and 30 minutes after apomorphine administration according to the following scale:
Mice consistently climbing before the injection of apomorphine are discarded.
With full-developed apomporphine climbing, the animals are hanging onto the cage walls, rather motionless, over longer periods of time. By contrast, climbs due to mere motor stimulation usually last only a few seconds.
The climbing scores are individually totaled (maximum score: 6 per mouse over 3 readings) and the total score of the control group (vehicle intraperitoneally-apomorphine subcutaneously) is set to 100%. ED₅₀ value with 95% confidence limits, calculated by a linear regression analysis of some of the compounds of this invention.

SMILES | Antipsychotic Activity Score (Dose 9.5 mg/kg ip) [%] | Antipsychotic Activity Score (Dose 20 mg/kg ip) [%]
CC1SC(C)(C)C(=O)N1CCCCN1CCC(c2csc3ccccc23)CC1.O=C(O)/C=C\C(=O)O (stereo not drawn) [3-[4-[4-(Benzo[b]thien-3-yl)-1-piperidinyl]butyl]-2,5,5-trimethyl-4-thiazolidinone maleate] | 50 | –
CC1SC(C)(C)C(=O)N1CCCCN1CCC(c2cc3ccccc3s2)CC1 (stereo not drawn) [3-[4-[4-[Benzo[b]thien-2yl)-1-piperidinyl[butyl]-2,5,5-trimethyl-4-thiazolidinone hydrochloride] | – | 44
CC1(C)C(=O)N(CCCCN2CCC(c3csc4ccccc34)CC2)CS1(=O)=O [3-[4-[4-[Benzo[b]thien-3-yl)-1-piperidinyl]butyl]-5,5-dimethyl-1,1-dioxo-4-thiazolidinone] | – | 98
